Reference: patent US10807994B2, “Heterocyclic compounds and uses thereof” (NUVATION BIO INC., priority 2017, dated 2020)

Legend:
A427 cells [1] = assay: Cell proliferation assay (Cell Titer-Glo), A427 cells; type: cell-based; conditions: Homo sapiens, A-427, typically 72 hrs post-treatment
Procedure: (§1) The effects of test compounds were studied in five cell lines with various histotypes. The cancer cells (Table 4) were harvested during the logarithmic growth period and counted. Adjust cell concentrations to the appropriated number with respective medium, and add 90 μL cell suspensions to 96-well plates. After cells were seeded, the plates were shaken gently to distribute cells evenly and incubated at 37° C., 5% CO2 on day 1.
(§2) Cells were treated with test compounds at 9 concentrations within a desired concentration range (e.g. 1.5 nM-10 μM) on day 2 by series diluting the test compound stock solution (10 mM in DMSO) with culture medium. Cell viability was assessed by Cell Titer-Glo® as recommended by Promega (Cat. No.: G7572, Promega) typically 72 hrs post-treatment.
(§3) Cell viability data were plotted using GraphPad Prism (version 5, GraphPad Software, Inc., San Diego, Calif.). In addition, a nonlinear regression model with a sigmoidal dose response and variable slope within GraphPad Prism was used to calculate the IC50 value of individual test compounds.

A427 cells [2] = assay: Cytotoxicity assay (resazurin), A427 cells, 72 hr; type: cell-based; conditions: Homo sapiens, A-427, read-out: Cell Viability A427 IC50
How it was run: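 Cells seeded at 1500 per well, grown 24 hr at 37° C, 5% CO2, then exposed to serially diluted compounds for 72–96 hr before 4–6 hr with 1 mM resazurin (Ex 535/Em 590 nm). Blank-subtracted signal normalised to DMSO control; percent inhibition used for IC50.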

HCT-116 cells = assay: Cell proliferation assay (Cell Titer-Glo), HCT-116 cells; type: cell-based; conditions: Homo sapiens, typically 72 hrs post-treatment, read-out: IC50 HCT116
Procedure: as §1, §2, §3

WEE1 kinase enzyme = WEE1 kinase enzyme (Homo sapiens (Human), UniProt P30291); assay: WEE1 IC50 determination, LanthaScreen Terbium labeled TR-FRET kinase assay; type: biochemical; conditions: WEE1 enzyme 1 nM
WEE1 kinase enzyme, sequence (P30291 whole entry): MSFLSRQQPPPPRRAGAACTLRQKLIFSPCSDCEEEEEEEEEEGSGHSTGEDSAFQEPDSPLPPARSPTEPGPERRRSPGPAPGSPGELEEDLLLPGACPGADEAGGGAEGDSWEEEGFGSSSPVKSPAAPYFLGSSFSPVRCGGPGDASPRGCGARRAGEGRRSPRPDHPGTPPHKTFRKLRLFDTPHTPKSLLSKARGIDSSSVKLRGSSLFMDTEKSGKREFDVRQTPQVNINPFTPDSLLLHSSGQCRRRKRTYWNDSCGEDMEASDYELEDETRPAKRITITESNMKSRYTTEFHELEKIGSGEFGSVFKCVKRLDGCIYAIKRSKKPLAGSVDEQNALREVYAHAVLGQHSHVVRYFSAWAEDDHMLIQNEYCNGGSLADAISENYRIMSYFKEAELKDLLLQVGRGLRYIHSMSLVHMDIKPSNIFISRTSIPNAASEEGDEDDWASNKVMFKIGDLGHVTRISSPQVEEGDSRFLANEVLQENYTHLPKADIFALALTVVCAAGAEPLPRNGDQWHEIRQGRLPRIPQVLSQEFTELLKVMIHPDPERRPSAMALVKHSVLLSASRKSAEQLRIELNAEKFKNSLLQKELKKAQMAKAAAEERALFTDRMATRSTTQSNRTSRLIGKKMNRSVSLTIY
How it was run: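 Human WEE1 (1 nM) was preincubated 10 min with 3-fold diluted compounds, then ATP ([…]) and fluorescent PolyGT substrate (200 nM) were added for 1 h at room temperature in the dark. Terbium antibody/EDTA stop, TR-FRET read (ex 340, em 495/520 nm); IC50 from four-parameter logistic fit of percent inhibition.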

A549 cells = assay: Cytotoxicity assay (resazurin), A549 cells, 96 hr; type: cell-based; conditions: Homo sapiens, read-out: Cell Viability A549 IC50
Procedure: A549 (CCL-185; ATCC) and A427 (HTB-53; ATCC), both lung epithelial cell lines were seeded in their respective medium (DMEM/MEM, 10569044/41090101; Gibco) at a cell count of 1500 cells per 100 μL per well in a 96 well edge plate (167425; ThermoFisher). Cells were allowed to grow at 37° C. for 24 hr in 5% CO2 environment (culture conditions) in a Nuaire incubator (humidified). Serially diluted test compounds (100 μL) within the desired testing concentration ranges were added to the culture plate were further incubated in culture conditions for 72 hr and 96 hr for A427 and A549 respectively. The experiment was terminated at the designated incubation time by replacing the medium with 100 μL of 1 mM of resazurin (R7017; Sigma) prepared in respective culture medium, and the plates were further incubated in culture conditions for 4-6 hr. Fluorescence was recorded using a multimodal plate reader (Biotek Synergy Neo) at an excitation wavelength of 535 nm and emission wavelength of 590 nm to obtain relative fluorescence units. Data analysis was done by subtracting the background fluorescence (only medium blank) value from each reading and then normalizing with the vehicle control (DMSO treated cells) to obtain percent survival/proliferation. Percent survival was then subtracted by 100 to get the percent inhibition of proliferation which was used to calculate IC50 values. Potency of compounds in other cell lines (As-Pc-1, Panc-10.05, MDAMB231, A172) was determined in an analogous manner.

NCI-H460 cells = assay: Cell proliferation assay (Cell Titer-Glo), NCI-H460 cells; type: cell-based; conditions: Homo sapiens, typically 72 hrs post-treatment
Procedure: as §1, §2, §3

LoVo cells = assay: Cell proliferation assay (Cell Titer-Glo), LoVo cells; type: cell-based; conditions: Homo sapiens, typically 72 hrs post-treatment
Procedure: as §1, §2, §3

CDC2 at Tyr15 residue = conditions: in combination with gemcitabine, carboplatin, or cisplatin; cited from earlier work

| IC50 (HCT-116 cells) | IC50 (WEE1 kinase enzyme) | IC50 (NCI-H460 cells) | IC50 (LoVo cells) | SMILES | IC50 (A427 cells [1]) | IC50 (A427 cells [2]) | IC50 (A549 cells) | Phosphorylation of CDC2 at Tyr15 (CDC2 at Tyr15 residue) |
| --- | --- | --- | --- | --- | --- | --- | --- | --- |
| 8.12 µM | 0.04 µM | > 10 µM | 8.26 µM | CC1(C)CN(C(=O)CO)Cc2cc(Nc3ncc4c(n3)OCN(c3c(Cl)cccc3Cl)C4=O)ccc21 [Example 1.3] | 5.98 µM | 4.52 µM | 2.99 µM | – |
| – | – | – | – | C=CCn1c(=O)c2cnc(Nc3ccc(N4CCN(C)CC4)cc3)nc2n1-c1cccc(C(C)(C)O)n1 [MK-1775, 1,2-allyl-1-(6-(2-hydroxypropan-2-yl)pyridin-2-yl)-6-((4-(4methylpiperazin-1-yl)phenyl)amino)-1H-pyrazolo[3,4-d]pyrimidin-3 (2H)-one] | – | – | – | abolished the phosphorylation of CDC2 at Tyr15 residue |
